In patent US20200370033A1, “BIOLOGICAL ASSEMBLY INCLUDING BIOLOGICAL COMPONENT AND SHIELD” (Regents of the University of Minnesota, priority 2018, published 2020):

Tests used:
[1] = Detergent and micelle properties; format: physicochemical; details: for Est. Micelle MW: estimated micelle molecular weight
[2] = tested on: E. coli DH5α expressing homoprotocatechuate 2,3-dioxygenase (2,3-HPCD); format: cell-based; details: 1% w/v for 20 minutes
Experimental: A 200 μL aliquot of 500 μM DHPAC in 50 mM PB at pH 7.5 was added to each well and A380 was measured for up to one hour. The data was then fit to a first order reaction model of the form:
Cp(t)=Cs,0(1−e^−k^r^t) (4)
Cp is the product concentration, Cs,0 is the initial substrate concentration, and kr is the first order reaction rate constant.

[3] = detergent micelle; cited from earlier work

Substance | Est. Micelle MW [1] | change in biocatalytic activity after detergent/surfactant treatment [2] | Aggregation Number [3] | micelle hydrodynamic radii [1]
polysorbate 85 [Tween 85] | 110 kDa | modest | 60 | 
polyethylene glycol p-(1,1,3,3-tetramethylbutyl)-phenyl ether [Triton X-100] | 228 kDa | modest | 140 | ~4 nm
